Literature values in patent US20040002514A1, “Topical use of hydroxyeicosatetraenoic acid compounds to treat psoriasis” (Alcon, Inc., priority 2002, published 2004).

Tests used:
[1] = system: leukotriene B4 production or its activity
colitis = conditions: in vivo
[2] = system: IL-8 production by human bone marrow stromal cells; conditions: 1 μM to 0.1 nM
[3] = system: IL-6 synthesis by bone marrow stromal cells

CCCCC[C@H](O)/C=C/C=C\C/C=C\C/C=C\CCCC(=O)O [15-HETE, 15-Hydroxyeicosatetraenoic acid]
effect on leukotriene B4 production or its activity [1]: inhibitory effects
anti-inflammatory properties in colitis (colitis): minor anti-inflammatory properties
effect on spontaneous and serum-induced production of IL-8 [2]: no effect
effect on spontaneous, serum- and cytokine-induced IL-6 synthesis [3]: no effect
improvement of psoriasis (psoriatic skin lesions; injected into psoriatic skin lesions): can improve psoriasis
amount required to cause a clinical effect (psoriatic skin lesions; intralesional injection, 0.1 ml of 10 lmol/L): 300 ng
